The record followed here is patent publication US4605739A, “Benzoyl indolecarboxylates” (Kowa Co., Ltd., priority 1983, dated 1986).

This assay concerns the target chymotrypsin (Bos taurus, UniProt P00766). The experiment in a line: chymotrypsin inhibitory effect (procedure of Muramatsu et al; acetyl-L-tyrosine ethyl ester substrate, Hestrin method). The following applies: 10 min preincubation, pH 8.0 Tris-HCl, 37° C., 30 min, absorbance 530 nm, read-out: Inhibitory Activity, 50% Inhibitory Concentration. The format is biochemical. As to the method: Some selected compounds of this invention were tested with respect to their chymotrypsin inhibitory effects.
The tests were conducted in accordance with the procedure of Muramatsu et al [The Journal of Biochemistry, 62, 408 (1967)]. A mixture was prepared which was made up of 0.1 ml of a dimethylsulfoxide solution of each test compound, 0.1 ml of water and 0.1 ml of a buffer solution containing 10 μg/ml of chymotrypsin (0.1M Tris-HCl buffer, pH 8.0). The mixture was incubated for 10 minutes, followed by addition of 0.2 ml of a buffer solution containing 25 mM of an ethyl ester of acetyl-L-tyrosine. The resulting mixture was reacted at 37° C. for 30 minutes. The remaining substrate was caused to develop a color by the Hestrin method, whereupon its absorbance was measured at 530 nm. For comparative purposes, use was made of tosylphenylalanine chloromethyl ketone (TPCK) which is known as a good inhibitor for chymotrypsin.

As for `COc1ccc2c(c1)c(CC(=O)Oc1ccc(C(=O)N3CCN(C(C)C)CC3)cc1)c(C)n2C` [Example 2], the IC50 was determined as 300 nM.

Consider `COc1ccc2[nH]c(C)c(CC(=O)Oc3ccc(C(=O)N4CCN(C(C)C)CC4)cc3)c2c1` [Example 3], for which the IC50 amounted to 400 nM.

On to `Cc1ccc2[nH]c(C)c(CC(=O)Oc3ccc(C(=O)N4CCN(C(C)C)CC4)cc3)c2c1` [Example 4], for which the IC50 was determined as 500 nM.

On to `CCCCc1ccc2[nH]c(C)c(CC(=O)Oc3ccc(C(=O)N4CCN(C(C)C)CC4)cc3)c2c1` [Example 5], for which the IC50 amounted to 600 nM.

In the case of `COc1ccc2[nH]cc(CC(=O)Oc3ccc(C(=O)N4CCN(C(C)C)CC4)cc3)c2c1` [Example 7], the IC50 was 80 nM.

In the case of `Cc1[nH]c2ccccc2c1CC(=O)Oc1ccc(C(=O)N2CCN(C(C)C)CC2)cc1` [Example 10], the IC50 is 700 nM.

In the case of `CC(C)N1CCN(C(=O)c2ccc(OC(=O)Cc3c[nH]c4ccccc34)cc2)CC1` [Example 14], the IC50 is 6000 nM.

On to `Cc1ccc(S(=O)(=O)NC(Cc2ccccc2)C(=O)CCl)cc1` (centres unmarked) [TPCK, tosylphenylalanine chloromethyl ketone, reference compound], for which the IC50 worked out at 500000 nM.
